± gives the standard deviation of the averaged measurements.
Legend:
LAPATINIB = compound: CS(=O)(=O)CCNCc1ccc(-c2ccc3ncnc(Nc4ccc(OCc5cccc(F)c5)c(Cl)c4)c3c2)o1 [LAPATINIB]; test: surviving fraction relative to DMSO-only wells; higher = less growth inhibition; conditions: exposure time: 5 days
Procedure, shortened: (§1)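 After seeding at 250–500 cells per well in 384-well plates and a 24-hour wait, log-phase tumour cell lines were exposed without interruption for five days to inhibitors at 0.5, 1, 5, 10, 50, 100, 500 and 1000 nM. CellTiter-Glo luminescence was recorded after 10 minutes at room temperature. Viability is reported as surviving fraction, the luminescence normalised to the median of DMSO-only wells.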

RESVERATROL = compound: Oc1ccc(/C=C/c2cc(O)cc(O)c2)cc1 [RESVERATROL]; test: as above; conditions: exposure time: 5 days
Procedure, shortened: as §1

| Test System | surviving fraction (LAPATINIB; 0.5 nM) | surviving fraction (LAPATINIB; 1 nM) | surviving fraction (LAPATINIB; 5 nM) | surviving fraction (LAPATINIB; 10 nM) | surviving fraction (LAPATINIB; 50 nM) | surviving fraction (LAPATINIB; 100 nM) | surviving fraction (LAPATINIB; 500 nM) | surviving fraction (LAPATINIB; 1000 nM) | surviving fraction (RESVERATROL; 0.5 nM) | surviving fraction (RESVERATROL; 1 nM) | surviving fraction (RESVERATROL; 5 nM) | surviving fraction (RESVERATROL; 10 nM) | surviving fraction (RESVERATROL; 50 nM) | surviving fraction (RESVERATROL; 100 nM) | surviving fraction (RESVERATROL; 500 nM) | surviving fraction (RESVERATROL; 1000 nM) |
| --- | --- | --- | --- | --- | --- | --- | --- | --- | --- | --- | --- | --- | --- | --- | --- | --- |
| HCC1395 BREAST | 0.928 ± 0.083 | 0.972 ± 0.072 | 0.998 ± 0.082 | 0.975 ± 0.16 | 0.919 ± 0.12 | 1.09 ± 0.061 | 1.02 ± 0.083 | 0.993 ± 0.15 | 0.968 ± 0.099 | 1.07 ± 0.075 | 1.1 ± 0.069 | 1.28 ± 0.16 | 1.02 ± 0.094 | 1.21 ± 0.1 | 1.05 ± 0.09 | 0.985 ± 0.15 |
| HCC1806 BREAST | 1.01 ± 0.083 | 1.12 ± 0.028 | 1.09 ± 0.04 | 1.09 ± 0.079 | 0.992 ± 0.018 | 1.11 ± 0.033 | 0.715 ± 0.025 | 0.65 ± 0.082 | 1.04 ± 0.073 | 1.04 ± 0.072 | 1.18 ± 0.14 | 1.18 ± 0.051 | 1.24 ± 0.049 | 1.23 ± 0.044 | 0.963 ± 0.029 | 0.963 ± 0.19 |
| HCC1954 BREAST | 0.905 ± 0.087 | 1.08 ± 0.058 | 1.04 ± 0.023 | 1.01 ± 0.12 | 0.823 ± 0.037 | 0.804 ± 0.092 | 0.387 ± 0.016 | 0.387 ± 0.039 | 1.06 ± 0.055 | 1.12 ± 0.012 | 1.21 ± 0.065 | 1.39 ± 0.098 | 1.03 ± 0.025 | 1.25 ± 0.19 | 0.997 ± 0.065 | 0.934 ± 0.064 |
| HCT15 LARGE INTESTINE | 1.01 ± 0.082 | 1.12 ± 0.098 | 1.04 ± 0.059 | 1.06 ± 0.076 | 0.988 ± 0.078 | 1.08 ± 0.07 | 1.04 ± 0.032 | 1.05 ± 0.071 | 0.982 ± 0.12 | 1.03 ± 0.12 | 1.02 ± 0.1 | 1.02 ± 0.093 | 1.05 ± 0.08 | 1.06 ± 0.095 | 0.968 ± 0.15 | 1.08 ± 0.11 |
| HELA CERVIX | 1.08 ± 0.1 | 1.23 ± 0.065 | 1.05 ± 0.043 | 1.04 ± 0.038 | 1.1 ± 0.029 | 1.15 ± 0.12 | 1.16 ± 0.09 | 1.16 ± 0.037 | 1.04 ± 0.034 | 1.12 ± 0.036 | 1.06 ± 0.096 | 1.08 ± 0.023 | 1.09 ± 0.066 | 1.12 ± 0.037 | 1.12 ± 0.092 | 1.21 ± 0.066 |
| HOS BONE | 1.017 ± 0.01 | 1.082 ± 0.01 | 1.059 ± 0.01 | 1.03 ± 0.011 | 1.05 ± 0.023 | 1.05 ± 0.034 | 1.039 ± 0.0051 | 1.04 ± 0.018 | 1.016 ± 0.0053 | 1.05 ± 0.03 | 1.018 ± 0.009 | 1.02 ± 0.021 | 1.03 ± 0.012 | 1.06 ± 0.036 | 1.05 ± 0.024 | 1.07 ± 0.025 |
| HOSMNG BONE | 0.92 ± 0.06 | 1.04 ± 0.05 | 0.88 ± 0.081 | 0.827 ± 0.12 | 0.848 ± 0.064 | 0.867 ± 0.11 | 0.89 ± 0.084 | 1.06 ± 0.08 | 0.83 ± 0.15 | 0.872 ± 0.023 | 0.832 ± 0.1 | 0.722 ± 0.061 | 0.827 ± 0.11 | 0.877 ± 0.11 | 0.878 ± 0.072 | 0.924 ± 0.1 |
| HSSYII SYNOVIAL | 0.98 ± 0.042 | 0.943 ± 0.022 | 0.947 ± 0.051 | 0.973 ± 0.033 | 0.947 ± 0.064 | 1.04 ± 0.087 | 0.969 ± 0.034 | 0.927 ± 0.01 | 0.951 ± 0.067 | 1.01 ± 0.029 | 1.01 ± 0.015 | 0.995 ± 0.016 | 0.967 ± 0.04 | 0.971 ± 0.079 | 0.9 ± 0.03 | 0.917 ± 0.043 |
| HT1080 SOFT TISSUE | 0.997 ± 0.044 | 1.06 ± 0.013 | 1.02 ± 0.017 | 1.05 ± 0.016 | 1.04 ± 0.016 | 1.02 ± 0.048 | 1.01 ± 0.021 | 1.05 ± 0.076 | 1.03 ± 0.031 | 1.03 ± 0.019 | 0.995 ± 0.024 | 1.04 ± 0.033 | 0.984 ± 0.017 | 1.03 ± 0.03 | 1.05 ± 0.013 | 1.1 ± 0.015 |
| HU09 BONE | 0.937 ± 0.082 | 0.937 ± 0.031 | 1.04 ± 0.1 | 1.04 ± 0.089 | 1 ± 0.056 | 1.04 ± 0.13 | 0.891 ± 0.043 | 0.798 ± 0.021 | 0.972 ± 0.079 | 1.08 ± 0.1 | 1.13 ± 0.1 | 1.07 ± 0.077 | 1.11 ± 0.15 | 1.1 ± 0.079 | 1.05 ± 0.12 | 1.06 ± 0.038 |
| HUO3N1 BONE | 1.05 ± 0.044 | 0.978 ± 0.069 | 1.08 ± 0.038 | 1.084 ± 0.01 | 1.02 ± 0.037 | 1.06 ± 0.043 | 0.876 ± 0.15 | 1 ± 0.065 | 1.01 ± 0.036 | 1.07 ± 0.037 | 1.04 ± 0.034 | 1.06 ± 0.06 | 1.09 ± 0.035 | 1.1 ± 0.037 | 1.07 ± 0.029 | 1.01 ± 0.067 |
| JIMT1 BREAST | 0.991 ± 0.035 | 1.02 ± 0.04 | 1.05 ± 0.039 | 1.01 ± 0.024 | 1 ± 0.035 | 1.01 ± 0.066 | 0.907 ± 0.065 | 0.783 ± 0.019 | 1.03 ± 0.038 | 1.04 ± 0.042 | 1.05 ± 0.047 | 1.01 ± 0.029 | 1.01 ± 0.016 | 1.05 ± 0.027 | 1 ± 0.035 | 1.05 ± 0.021 |
| JURKAT HAEMATOPOIETIC AND LYMPHOID TISSUE | 0.997 ± 0.078 | 1.02 ± 0.061 | 0.936 ± 0.037 | 0.959 ± 0.017 | 0.933 ± 0.055 | 0.947 ± 0.025 | 1.01 ± 0.012 | 1.011 ± 0.0081 | 1.022 ± 0.0052 | 1.04 ± 0.022 | 1.02 ± 0.011 | 1.04 ± 0.033 | 0.985 ± 0.018 | 0.953 ± 0.011 | 1.02 ± 0.029 | 1.04 ± 0.039 |
| KPD BONE | 0.984 ± 0.055 | 1.08 ± 0.03 | 1.05 ± 0.02 | 1.03 ± 0.049 | 1.09 ± 0.06 | 1.08 ± 0.066 | 0.956 ± 0.08 | 0.951 ± 0.094 | 0.997 ± 0.054 | 1.03 ± 0.032 | 1.08 ± 0.04 | 1.09 ± 0.063 | 1.02 ± 0.017 | 1.08 ± 0.041 | 0.969 ± 0.044 | 1.05 ± 0.028 |
| LM7 BONE | 0.936 ± 0.046 | 1.07 ± 0.079 | 1.1 ± 0.034 | 1.1 ± 0.042 | 0.99 ± 0.057 | 1.06 ± 0.02 | 0.991 ± 0.022 | 0.955 ± 0.041 | 1.05 ± 0.036 | 1.05 ± 0.025 | 1.1 ± 0.045 | 1.18 ± 0.061 | 1.07 ± 0.067 | 1.15 ± 0.054 | 1.04 ± 0.034 | 1.12 ± 0.048 |
| LNCAP PROSTATE | 0.894 ± 0.055 | 0.981 ± 0.02 | 0.917 ± 0.086 | 0.981 ± 0.033 | 0.937 ± 0.061 | 0.891 ± 0.038 | 0.995 ± 0.035 | 0.951 ± 0.21 | 0.912 ± 0.051 | 0.987 ± 0.098 | 0.897 ± 0.11 | 0.775 ± 0.12 | 1.04 ± 0.16 | 0.919 ± 0.11 | 0.914 ± 0.08 | 0.956 ± 0.18 |
| MCF7 BREAST | 0.988 ± 0.053 | 0.921 ± 0.032 | 0.931 ± 0.049 | 0.962 ± 0.043 | 0.961 ± 0.057 | 0.946 ± 0.096 | 0.946 ± 0.061 | 0.916 ± 0.023 | 0.91 ± 0.027 | 1.01 ± 0.074 | 0.927 ± 0.068 | 0.947 ± 0.03 | 0.951 ± 0.063 | 0.99 ± 0.016 | 1 ± 0.077 | 1.04 ± 0.031 |
| MDAMB134 BREAST | 0.967 ± 0.017 | 0.963 ± 0.1 | 0.975 ± 0.028 | 1 ± 0.14 | 1.04 ± 0.19 | 0.966 ± 0.083 | 0.956 ± 0.071 | 0.806 ± 0.062 | 0.894 ± 0.15 | 1.02 ± 0.045 | 0.864 ± 0.11 | 0.811 ± 0.016 | 1.06 ± 0.14 | 1.04 ± 0.15 | 1.057 ± 0.0028 | 1.08 ± 0.048 |
| MDAMB157 BREAST | 1 ± 0.11 | 0.991 ± 0.11 | 1.09 ± 0.034 | 1.04 ± 0.095 | 1.01 ± 0.064 | 1.008 ± 0.0098 | 0.951 ± 0.082 | 0.931 ± 0.041 | 1.01 ± 0.061 | 1.06 ± 0.048 | 0.972 ± 0.057 | 1.1 ± 0.038 | 0.992 ± 0.025 | 1.07 ± 0.03 | 0.972 ± 0.095 | 1 ± 0.1 |
| MDAMB231 BREAST | 0.9471 ± 0.0072 | 1.01 ± 0.032 | 0.986 ± 0.029 | 0.9838 ± 0.0088 | 0.96 ± 0.019 | 1.02 ± 0.012 | 1.013 ± 0.0062 | 1.01 ± 0.021 | 0.97 ± 0.01 | 0.996 ± 0.013 | 0.9638 ± 0.0043 | 0.993 ± 0.016 | 0.9694 ± 0.0024 | 0.998 ± 0.012 | 0.993 ± 0.012 | 1.03 ± 0.053 |
| MDAMB361 BREAST | 0.891 ± 0.12 | 0.823 ± 0.11 | 0.902 ± 0.096 | 0.874 ± 0.065 | 0.864 ± 0.028 | 0.711 ± 0.041 | 0.724 ± 0.096 | 0.672 ± 0.069 | 0.839 ± 0.071 | 0.871 ± 0.11 | 0.894 ± 0.089 | 0.898 ± 0.079 | 0.948 ± 0.012 | 0.884 ± 0.021 | 0.949 ± 0.082 | 0.952 ± 0.17 |

— the supplement of paper PMC6045584
